In ChEMBL document CHEMBL5032523, “Discovery of thiazolidin-4-one analogue as selective GSK-3β inhibitor through structure based virtual screening” (Bioorg Med Chem Lett, 2021):
Active and inactive are the calls of the source. No cut-off for these calls is given here.

Legend:
[1] = target: T1, Casein kinase I delta/epsilon (Homo sapiens, UniProt P48730+P49674); experiment: Inhibition of CK-1 delta/epsilon (unknown origin) at 10 uM relative to control; format: protein-complex assay
Target sequence in this assay (P48730 whole entry, looked up): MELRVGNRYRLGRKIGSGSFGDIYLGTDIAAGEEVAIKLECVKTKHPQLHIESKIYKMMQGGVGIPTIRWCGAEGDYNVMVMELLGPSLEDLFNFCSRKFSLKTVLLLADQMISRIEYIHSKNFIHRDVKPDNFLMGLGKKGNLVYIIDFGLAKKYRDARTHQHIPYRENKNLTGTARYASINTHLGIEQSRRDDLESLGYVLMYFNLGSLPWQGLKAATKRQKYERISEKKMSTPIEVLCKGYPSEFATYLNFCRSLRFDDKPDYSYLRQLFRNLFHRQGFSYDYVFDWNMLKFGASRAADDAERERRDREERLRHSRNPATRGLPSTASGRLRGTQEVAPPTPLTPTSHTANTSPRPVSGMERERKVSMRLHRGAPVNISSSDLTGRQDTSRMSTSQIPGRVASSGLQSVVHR
Target sequence in this assay (P49674 whole entry, looked up): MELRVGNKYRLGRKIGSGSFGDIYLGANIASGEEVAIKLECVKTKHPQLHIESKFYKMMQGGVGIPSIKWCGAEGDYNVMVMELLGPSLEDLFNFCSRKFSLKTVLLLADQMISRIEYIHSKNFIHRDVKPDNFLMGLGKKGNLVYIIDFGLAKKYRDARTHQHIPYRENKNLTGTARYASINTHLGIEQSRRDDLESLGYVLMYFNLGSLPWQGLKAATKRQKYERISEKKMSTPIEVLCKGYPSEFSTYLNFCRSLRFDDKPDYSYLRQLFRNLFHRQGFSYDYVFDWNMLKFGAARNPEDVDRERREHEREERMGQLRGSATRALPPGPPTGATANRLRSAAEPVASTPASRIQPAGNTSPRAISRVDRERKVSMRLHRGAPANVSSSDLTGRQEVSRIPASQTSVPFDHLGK

[2] = target: T2, Dual specificity protein kinase CLK1 (Homo sapiens, UniProt P49759); experiment: Inhibition of CLK1 (unknown origin) at 10 uM relative to control
Target sequence in this assay (P49759 whole entry, looked up): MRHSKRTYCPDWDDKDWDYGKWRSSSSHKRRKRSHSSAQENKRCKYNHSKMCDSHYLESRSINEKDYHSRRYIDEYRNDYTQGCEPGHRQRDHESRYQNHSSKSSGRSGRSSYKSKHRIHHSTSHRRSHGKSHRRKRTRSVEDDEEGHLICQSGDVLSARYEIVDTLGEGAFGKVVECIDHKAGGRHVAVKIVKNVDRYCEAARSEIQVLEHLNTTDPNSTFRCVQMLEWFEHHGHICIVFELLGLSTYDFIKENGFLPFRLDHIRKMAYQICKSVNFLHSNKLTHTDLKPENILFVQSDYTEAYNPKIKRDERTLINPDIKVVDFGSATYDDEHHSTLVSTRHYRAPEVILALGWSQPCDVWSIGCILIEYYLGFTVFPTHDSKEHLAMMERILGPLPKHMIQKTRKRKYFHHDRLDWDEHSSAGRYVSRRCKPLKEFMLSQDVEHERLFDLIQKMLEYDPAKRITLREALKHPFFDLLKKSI

[3] = target: T3, Cyclin-dependent kinase 5 (Homo sapiens, UniProt Q00535); experiment: Inhibition of CDK5 (unknown origin) at 10 uM relative to control
Target sequence in this assay (Q00535 whole entry, looked up): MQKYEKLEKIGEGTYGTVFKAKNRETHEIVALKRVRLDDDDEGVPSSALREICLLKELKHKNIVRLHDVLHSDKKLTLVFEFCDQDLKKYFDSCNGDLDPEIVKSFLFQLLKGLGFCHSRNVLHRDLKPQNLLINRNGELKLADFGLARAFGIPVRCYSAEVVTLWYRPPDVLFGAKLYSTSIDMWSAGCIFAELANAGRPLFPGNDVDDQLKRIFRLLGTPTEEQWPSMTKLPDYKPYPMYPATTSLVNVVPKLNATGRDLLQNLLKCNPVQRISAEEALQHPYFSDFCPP

[4] = target: T4, Serine/threonine-protein kinase pim-1 (Homo sapiens, UniProt P11309); experiment: Inhibition of PIM1 (unknown origin) at 10 uM relative to control
Target sequence in this assay (P11309 whole entry, looked up): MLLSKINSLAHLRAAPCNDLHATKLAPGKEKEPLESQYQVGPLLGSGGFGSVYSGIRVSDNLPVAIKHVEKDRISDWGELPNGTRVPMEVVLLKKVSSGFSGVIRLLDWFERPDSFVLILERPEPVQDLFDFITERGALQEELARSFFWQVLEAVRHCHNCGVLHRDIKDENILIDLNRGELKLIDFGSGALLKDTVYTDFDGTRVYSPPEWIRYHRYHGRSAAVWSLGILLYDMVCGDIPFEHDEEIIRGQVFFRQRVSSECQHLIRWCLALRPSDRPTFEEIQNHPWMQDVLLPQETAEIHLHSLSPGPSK

[5] = target: T5, Cyclin-dependent kinase 9 (Homo sapiens, UniProt P50750); experiment: Inhibition of CDK9 (unknown origin) at 10 uM relative to control
T5 sequence (P50750 whole entry): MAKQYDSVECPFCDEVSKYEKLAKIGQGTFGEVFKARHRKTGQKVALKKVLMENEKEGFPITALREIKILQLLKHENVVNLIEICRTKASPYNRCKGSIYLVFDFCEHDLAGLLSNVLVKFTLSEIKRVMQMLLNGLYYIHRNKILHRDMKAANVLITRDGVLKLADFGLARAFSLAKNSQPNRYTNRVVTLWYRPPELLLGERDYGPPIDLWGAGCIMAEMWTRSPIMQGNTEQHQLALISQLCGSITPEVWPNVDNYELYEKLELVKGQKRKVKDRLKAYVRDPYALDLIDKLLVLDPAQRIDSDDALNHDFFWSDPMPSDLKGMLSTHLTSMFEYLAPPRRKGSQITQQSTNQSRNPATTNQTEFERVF

[6] = target: T6, Serine/threonine-protein kinase haspin (Homo sapiens) (UniProt Q8TF76); experiment: Inhibition of HASPIN (unknown origin) at 10 uM relative to control
T6 sequence (whole entry): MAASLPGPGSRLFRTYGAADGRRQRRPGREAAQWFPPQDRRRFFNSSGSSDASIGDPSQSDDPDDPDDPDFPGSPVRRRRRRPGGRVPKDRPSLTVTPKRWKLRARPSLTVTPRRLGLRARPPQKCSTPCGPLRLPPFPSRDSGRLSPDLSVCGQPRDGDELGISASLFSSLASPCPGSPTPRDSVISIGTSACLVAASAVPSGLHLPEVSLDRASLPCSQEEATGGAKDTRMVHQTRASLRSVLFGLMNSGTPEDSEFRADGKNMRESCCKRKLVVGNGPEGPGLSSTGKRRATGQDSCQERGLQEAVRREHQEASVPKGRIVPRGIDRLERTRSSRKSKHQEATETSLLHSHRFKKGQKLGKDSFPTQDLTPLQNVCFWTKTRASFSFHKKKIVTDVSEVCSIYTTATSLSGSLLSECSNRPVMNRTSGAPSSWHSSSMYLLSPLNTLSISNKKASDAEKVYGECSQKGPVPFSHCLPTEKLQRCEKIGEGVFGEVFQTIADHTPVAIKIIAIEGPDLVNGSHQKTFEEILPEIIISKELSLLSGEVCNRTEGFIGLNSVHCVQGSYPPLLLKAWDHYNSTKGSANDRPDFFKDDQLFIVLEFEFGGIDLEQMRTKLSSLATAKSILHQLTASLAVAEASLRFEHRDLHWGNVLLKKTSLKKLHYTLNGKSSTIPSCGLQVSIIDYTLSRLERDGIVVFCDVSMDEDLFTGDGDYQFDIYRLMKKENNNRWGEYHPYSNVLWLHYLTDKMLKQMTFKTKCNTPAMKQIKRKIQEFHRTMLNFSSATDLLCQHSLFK

[7] = target: T7, Glycogen synthase kinase-3 beta (Homo sapiens, UniProt P49841); experiment: Inhibition of GSK3beta (unknown origin) at 10 uM relative to control
Target sequence in this assay (P49841 whole entry, looked up): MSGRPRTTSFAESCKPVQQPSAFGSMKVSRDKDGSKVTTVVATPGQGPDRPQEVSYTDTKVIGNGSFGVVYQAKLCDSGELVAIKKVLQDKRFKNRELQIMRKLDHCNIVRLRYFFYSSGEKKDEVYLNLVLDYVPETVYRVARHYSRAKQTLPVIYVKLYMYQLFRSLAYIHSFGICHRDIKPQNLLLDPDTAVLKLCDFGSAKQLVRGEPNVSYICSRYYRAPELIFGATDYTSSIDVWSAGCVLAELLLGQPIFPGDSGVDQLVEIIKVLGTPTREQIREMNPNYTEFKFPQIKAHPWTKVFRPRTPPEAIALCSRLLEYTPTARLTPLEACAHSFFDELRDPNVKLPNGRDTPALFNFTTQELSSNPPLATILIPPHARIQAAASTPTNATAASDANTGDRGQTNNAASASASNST

[8] = target: T8, Dual specificity tyrosine-phosphorylation-regulated kinase 1A (Homo sapiens, UniProt Q13627); experiment: Inhibition of DYRK1A (unknown origin) at 10 uM relative to control
[9] = target: T2, Dual specificity protein kinase CLK1; experiment: Inhibition of CLK1 (unknown origin)
Target sequence in this assay (P49759 whole entry): as the sequence (P49759 whole entry, looked up) above

[10] = target: T4, Serine/threonine-protein kinase pim-1; experiment: Inhibition of PIM1 (unknown origin)
Target sequence in this assay (P11309 whole entry): as the sequence (P11309 whole entry, looked up) above

[11] = target: T7, Glycogen synthase kinase-3 beta; experiment: Inhibition of GSK3beta (unknown origin)
Target sequence in this assay (P49841 whole entry): as the sequence (P49841 whole entry, looked up) above

[12] = target: T3, Cyclin-dependent kinase 5; experiment: Inhibition of CDK5 (unknown origin)
Target sequence in this assay (Q00535 whole entry): as the sequence (Q00535 whole entry, looked up) above

[13] = target: T1, Casein kinase I delta/epsilon; experiment: Inhibition of CK-1 delta/epsilon (unknown origin); format: protein-complex assay
Target sequence in this assay (P48730 whole entry): as the sequence (P48730 whole entry, looked up) above
Target sequence in this assay (P49674 whole entry): as the sequence (P49674 whole entry, looked up) above

[14] = target: T8, Dual specificity tyrosine-phosphorylation-regulated kinase 1A; experiment: Inhibition of DYRK1A (unknown origin)
[15] = target: T7, Glycogen synthase kinase-3 beta; experiment: Non-competitive inhibition of GSK3beta (unknown origin) at 50 uM by ATP competitive assay
Target sequence in this assay (P49841 whole entry, looked up): as the sequence (P49841 whole entry, looked up) above

[16] = target: T9, Serine/threonine-protein kinase haspin (Homo sapiens, UniProt Q8TF76); experiment: Inhibition of HASPIN (unknown origin)
T9 sequence (Q8TF76 whole entry): T6 sequence (whole entry)

[17] = target: T5, Cyclin-dependent kinase 9; experiment: Inhibition of CDK9 (unknown origin)

inhibition [1] | inhibition [2] | inhibition [3] | inhibition [4] | inhibition [5] | inhibition [6] | inhibition [7] | inhibition [8] | IC50 [9] | IC50 [10] | IC50 [11] | IC50 [12] | IC50 [13] | IC50 [14] | inhibition [15] | IC50 [16] | IC50 [17] | Compound
28% | 11% | inactive | 19% | 18% | inactive | 5% | inactive |  |  |  |  |  |  |  |  |  | Clc1ccccc1OCCc1cc([C@@H]2CCN(Cc3cccc4ncccc34)C2)n[nH]1
14% | 22% | 11% | 29% | 29% | 22% | 80% | 16% | > 10 µM | > 10 µM | 1.08 µM | > 10 µM | > 10 µM | > 10 µM | Active | > 10 µM | > 10 µM | COc1cc(/C=C2\S/C(=N/c3ccc(C)c(C)c3)NC2=O)ccc1OCc1ccc2ccccc2c1
37% | 9% | inactive | 22% | 29% | 33% | 10% | inactive |  |  |  |  |  |  |  |  |  | Clc1cccc(OCCc2cc([C@@H]3CCN(Cc4cccc5ncccc45)C3)n[nH]2)c1
12% | inactive | 7% | 16% | 23% | 29% | 25% | 6% |  |  |  |  |  |  |  |  |  | Cc1cc(C)c2cc(CN(CCc3ccccc3)Cc3nnnn3Cc3ccco3)c(=O)[nH]c2c1
